# Entries after “also recorded” stand apart in the source; their conditions may differ.
# Columns and labels:
# LRRC54 gene = assay: LRRC54 (non-genomic gene) mRNA expression, qPCR; details: for LRRC54 (non-genomic gene) mRNA expression, in words: MCF-7 cells, 1 μM PaPE or 10 nM E2 for 4 h where stated, versus vehicle, E2 or compound 2
# ERα-SRC3 interaction = target: T1, ERα-SRC3 interaction (Homo sapiens, UniProt P03372); assay: co-immunoprecipitation of ERα and SRC3 in MCF-7 cells; type: cell-based; details: 10 nM E2 or 1 μM PaPE-1, 1 h
# T1 construct: endogenous in cells; host or cells: MCF-7
# T1 sequence (P03372 1-595): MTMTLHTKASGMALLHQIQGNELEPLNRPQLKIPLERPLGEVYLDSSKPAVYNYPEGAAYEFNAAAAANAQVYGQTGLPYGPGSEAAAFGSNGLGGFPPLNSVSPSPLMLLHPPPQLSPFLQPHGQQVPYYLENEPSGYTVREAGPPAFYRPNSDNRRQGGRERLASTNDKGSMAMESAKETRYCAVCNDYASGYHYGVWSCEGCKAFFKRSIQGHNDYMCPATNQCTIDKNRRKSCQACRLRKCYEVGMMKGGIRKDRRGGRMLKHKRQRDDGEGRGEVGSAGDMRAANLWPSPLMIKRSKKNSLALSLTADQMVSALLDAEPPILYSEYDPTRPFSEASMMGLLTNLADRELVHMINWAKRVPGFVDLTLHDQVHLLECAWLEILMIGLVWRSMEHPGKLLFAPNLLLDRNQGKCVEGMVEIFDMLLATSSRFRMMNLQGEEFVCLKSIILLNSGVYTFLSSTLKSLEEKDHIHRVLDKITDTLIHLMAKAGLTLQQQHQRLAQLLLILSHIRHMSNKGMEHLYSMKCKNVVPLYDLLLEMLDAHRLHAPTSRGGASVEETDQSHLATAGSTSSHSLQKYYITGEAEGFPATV
# From the text: FIG. 10. Estrogen receptor and coactivator binding and interaction assays with ligands and ligand dissociation rates. […] After ligand treatment, cell lysates were immunoprecipitated with antibody to SRC3 or control IgG, and immunoprecipitates were separated on SDS PAGE gels and blotted for ERα using anti-ERα antibody. […] For details, see methods below.
# (§1) Western blot analysis used specific antibodies for ERα (HC-20, Santa Cruz); ERK2 (D-2, Santa Cruz); and pS^6, pS6K, pmTOR, pRAPTOR, pRICTOR, pMAPK (Cell Signaling). Coimmunoprecipitation assays used antibodies for SRC3 (Santa Cruz, C-20) and ERα (Santa Cruz, F10).
# [1] = pharmacokinetics after SC injection in ovariectomized mice; type: in vivo; details: female, C57BL/6, mouse, serum, 100 ug, subcutaneous injection
# Description: For short-term studies, ovariectomized C57BL/6 mice were injected SC with 100 μg of PaPE-1 in 100 μl DMSO. Three mice were sacrificed at each time point, and 400 μl of blood was obtained from the abdominal aorta. Samples were centrifuged at 2000 g for 10 min, and serum was collected. A 50 μl portion of each sample was submitted to the Metabolomics Center at the University of Illinois for analysis. For longer-term studies, ovariectomized C57BL/6 mice were implanted SC with a pellet fabricated with 8 mg PaPE-1 and 12 mg cholesterol. Blood samples (30 μl) were collected by tail snipping every week until the third week of treatment. Samples were centrifuged at 2000 g for 10 min and serum was collected. Serum (10 μl) was mixed with 40 μl of PBS and submitted to the Metabolomics Center for analysis. For analysis, a mass standard of PaPE-1 (labeled with three deuterium atoms) was added to each sample before analysis by liquid chromatography-mass spectrometry using the 5500 QTrap with Agilent 1200 HPLC.
# [2] = system: ovariectomized C57BL/6 mice; details: mouse, in vivo
# [3] = system: ovariectomized C57BL/6 mice; assay: stroke model, transient middle cerebral artery occlusion (tMCAo)
# eNOS = eNOS activation in primary endothelial cells (14C-L-arginine to 14C-L-citrulline); type: cell-based, bovine; details: 15 min; 10 nM ligand (FIG. 9E)
# MCF-7 cells [4] = assay: RNA-Seq of MCF-7 cells treated with OA with and without PaPE-1; type: cell-based, human
# Description: FIG. 38. Identification of genes induced by OA and PaPE-1's effect on the gene regulation. (A) RNA-Seq analysis of gene expression changes induced by OA and OA+PaPE1. Heat map of the genes with significant changed expression. MCF-7 cells were treated with Veh or 100 nM OA with and without 1 μM PaPE-1 for 24 h. RNA was isolated and RNA-Seq was performed using 2 samples from each treatment group. Differentially regulated genes were determined with p<0.05 and expression fold change >2. (B) Clusters from A. regulated by OA and reversed by PaPE-1. The average gene expression level of the cluster1 (C1) and 2 (C2) identified as PaPE-1 regulated high-fat genes. In C1, there are 425 genes whose expression were found stimulated in OA but not in the OA+PaPE-1 treatment. In C2, there are 646 genes whose expression were found suppressed in the OA but restored by OA+PaPE-1 treatment. (C) Venn diagram analysis. […] (D) Examples of OA-regulated genes. Some of the top functions of the involved genes are presented.
# MCF-7 cells [5] = assay: Seahorse cell metabolic phenotype assays in MCF-7 cells; type: cell-based, human; details: 24 hours; listed as PaPE-1
# mTOR and MAPK signaling = assay: Western blot of signaling pathway activation in MCF-7 cells; type: cell-based, human
# From the text: as §1
smiles,measurement,setting,value
"Cc1cc(-c2ccc3c(c2)CCC3O)cc(C)c1O (racemic) [Compound 2, 5-(4-hydroxy-3,5-dimethylphenyl)-2,3-dihydro-1H-inden-1-ol]","LRRC54 activation, fold higher level than E2",LRRC54 gene; FIG. 14,1.9 fold
same,"LRRC54 (non-genomic gene) mRNA expression, in words",LRRC54 gene,equivalent activities
same,"LRRC54 (non-genomic gene) mRNA expression, in words",LRRC54 gene; listed as PaPE-1,LRRC54 stimulation
same,coimmunoprecipitation of ERα with SRC3,ERα-SRC3 interaction,no coimmunoprecipitated complexes were observed
same,half-life,[1],~1 h
same,uterine wet weight,[2],no effect
same,severity of CNS injury on MRI,[3]; 3 and 7 days,decreased compared with control treatment
same,infarct volumes,"[3]; 3d and 7d post-tMCAo, compared with vehicle",significantly reduced infarct volumes
same,degree of swelling associated with the injury,[3]; 3 days post-stroke,attenuated
same,reduction of leukocytes infiltrated in the brain,[3]; 3 days post-stroke,93%
same,"rotorod functional recovery, of baseline",[3]; 6d post-tMCAo,85%
same,"rotorod functional recovery, of baseline",[3]; 13d post-tMCAo,82%
same,"rotorod function post-stroke, in words","[3]; mouse, in vivo",improved function post-stroke
same,eNOS / NOS activity,eNOS,comparable response
same,cluster C1: genes stimulated in OA but not in OA+PaPE-1,MCF-7 cells [4],425 genes
same,cluster C2: genes suppressed in OA but restored by OA+PaPE-1,MCF-7 cells [4],646 genes
same,OA-downregulated genes whose expression was restored by PaPE-1,MCF-7 cells [4]; 1 μM PaPE-1,about 60%
same,OA-upregulated genes whose activation was blocked by PaPE-1,MCF-7 cells [4]; 1 μM PaPE-1,80%
same,OA-induced glycolytic and aerobic respiration with PaPE-1,MCF-7 cells [5],reversed by PaPE-1 treatment; also recorded: normalized by adding PaPE-1
same,Serl 18 phosphorylation of ERα,mTOR and MAPK signaling,did not induce any detectable
same,"activation of mTOR, MAPK (and AKT) signaling",mTOR and MAPK signaling; listed as PaPE-1,very efficient in activating mTOR and MAPK signaling; also recorded: selectively activated mTOR and MAPK signaling

# Source: patent US10703698B2, “Compounds which activate estrogen receptors and compositions and methods of using the same” (The Board of Trustees of the University of Illinois, priority 2016, dated 2020)
